According to patent publication US5399566A, “Pyridine derivatives having angiotensin II antagonism” (Meiji Seika Kabushiki Kaisha, priority 1990, dated 1995):

Key:
[1] = test system: hypertensive action by angiotensin II; experiment: Inhibition on the hypertensive action by an exogenous angiotensin II in conscious rats; format: in vivo, Spraque-Dawley (SD) male rats; conditions: oral; for ED50: Rattus norvegicus, within 6 hours after administration, read-out: ED50 (dose required for inhibiting the hypertensive action by angiotensin II to the extent of 50%); for inhibitory effect on the hypertensive action by angiotensin II: angiotensin II 0.1 μg/kg i.v.
From the text: (§1) The angiotensin II antagonistic activities in vitro were compared on the basis of the intensities (pA2 value) of antagonizing the contraction response to angiotensin II at the isolated thoracic aorta of rabbit. The in vivo activities were examined by comparing the inhibitory effects on the hypertensive action by an exogenous angiotensin II in a non-anesthetized rat and the hypotensive effects of a renal hypertensive rat or a spontaneously hypertensive rat.
Anesthetized Spraque-Dawley (SD) male rats were cannulated into a femoral artery and a femoral vein and used for the experiment at the time when it has elapsed at least 24 hours after the operation. The hypertensive action caused by angiotensin II (0.1 μg/kg) which has been administered through the vein catheter was measured under conscious and unrestrained condition before and after administration of the compound. The artery catheter was connected to a pressure transducer to measure a mean blood pressure, and the subject compounds were orally administered in the form of a homogeneous suspension in a 0.5% aqueous carboxymethyl cellulose solution.
The intensities of the inhibitory effects within 6 hours after administration of the compound were examined on the basis of the dose of the compound required for inhibiting the hypertensive action by angiotensin II to the extent of 50% (ED50 values).

[2] = molecular target: T1, contraction response to angiotensin II at the isolated thoracic aorta of rabbit (Oryctolagus cuniculus, UniProt P34976); experiment: In vitro angiotensin II antagonism, isolated rabbit thoracic aorta (Schild pA2); format: cell-based; conditions: Schild plot
T1 construct: A strip of thoracic aorta of a male rabbit (2.5-3.0 kg) was prepared by the usual method; from tissue; host or cells: rabbit thoracic aorta strip
T1 sequence (P34976 1-359): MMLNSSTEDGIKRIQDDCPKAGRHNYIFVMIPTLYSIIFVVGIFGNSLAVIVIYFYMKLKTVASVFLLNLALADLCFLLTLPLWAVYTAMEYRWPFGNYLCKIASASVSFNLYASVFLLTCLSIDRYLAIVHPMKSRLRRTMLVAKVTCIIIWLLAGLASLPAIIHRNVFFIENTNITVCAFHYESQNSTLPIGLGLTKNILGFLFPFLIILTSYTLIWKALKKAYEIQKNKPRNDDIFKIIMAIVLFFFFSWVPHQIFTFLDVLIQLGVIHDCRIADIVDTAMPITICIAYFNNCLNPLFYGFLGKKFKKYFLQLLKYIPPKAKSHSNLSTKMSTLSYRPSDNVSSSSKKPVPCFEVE
From the text: as §1
A strip of thoracic aorta of a male rabbit (2.5-3.0 kg) was prepared by the usual method and suspended in an organ bath containing well oxygenated Krebs-Henseleit solution at 37° C. The pA2 value was calculated according to the method described by H. O. Schild (British Journal of Pharmacology and Chemotherapeutics, 2, 189-206, 1947). A strip treated with 3-5 doses of a subject compound in an amount of 10^-6 M-10^-10 M and a strip treated with no drug were employed for obtaining a dose-response curve by angiotensin II. Log (dose ratio--1) was calculated from the shift of the dose-response curve of the subject compound, and pA2 value was obtained from the Schild plottings.

[3] = Toxicity test, oral, mice; conditions: mouse, in vivo, ddY male mice 5 weeks old
Description: Several compounds of the present invention represented by the general formula (I) were administered orally by compulsion to ddY male mice of 5 weeks old (average weight, ca. 20 g).

[4] = test system: Fisher 344 male rats; experiment: Antianxiety effect, elevated plus maze; format: in vivo; conditions: diazepam 3 mg/kg
Description: The subject compounds were examined on their antianxiety effect with the light and dark box according to the method described by B. Costall et al. (Pharmacology Biochemistry and Behavior, 32, 777-785, 1989) and with the elevated plus maze by S. Pell et al. (Journal of Neuroscience Methods, 14, 149-167, 1985).
To Fisher 344 male rats (5-6 weeks old), the subject compounds were orally administered at a dose of 1-100 μg/kg in the form of a homogeneous suspension or solution in a 0.5% aqueous carboxymethyl cellulose solution. Among the four arms of the elevated plus maze (a device in which four arms are intersected crosswise and connected together at a height of 50 cm from the floor), the two arms with side walls are referred to as closed arms and the two arms without side walls are referred to as open arms. […] As the indices of the behavior, the latency until stepped out from the arm first placed to the other arm and the durations in the respective arms were measured, and the other behaviors were recorded. Diazepam was used as a control agent, and the drug administered group and the solvent administered group (group to which a 0.5% aqueous carboxymethyl cellulose solution was administered)were compared for the behaviors.

Structure (SMILES)	Kb [2] [nM]	inhibitory effect on the hypertensive action by angiotensin II ([1]; 3 mg/kg)	inhibitory effect on the hypertensive action by angiotensin II ([1]; dose of 1 mg/kg or less)	other results
CCc1cc(OCc2ccc(-c3ccccc3-c3nnn[nH]3)cc2)cc(C)n1 [Example 3, 2-ethyl-6-methyl-4-[2'-(tetrazol-5-yl)biphenyl-4-yl]-methoxypyridine]	5.75	–	–	ED50 [1]: 1.35 mg/kg; LD50 [3]: > 1000 mg/kg
CCc1cc(OCc2ccc(-c3ccccc3C(=O)O)cc2)cc(CC)n1 [Example 81, 2,6-diethyl-4-(2'-carboxybiphenyl-4-yl)m ethoxypyridine]	9.77	significant inhibitory effects	–	–
Cc1cc(OCc2ccc(-c3ccccc3-c3nnn[nH]3)cc2)c(C(=O)N(C)C)c(C)n1 [Example 53, 2,6-Dimethyl-3-(N,N-dimethylcarbamoyl)-4-[2'-(tetrazol-5-yl)bipbenyl-4-yl]methoxypyridine]	3.02	significant inhibitory effects	–	–
CCc1nc(C)cc(OCc2ccc(-c3ccccc3-c3nnn[nH]3)cc2)c1OC [Example 16, 2-ethyl-3-methoxy-6-methyl-4-[2'-(tetrazol-5-yl)biphenyl-4-yl]methoxypyridine]	0.912	–	significant inhibitory effects	–
CCOc1c(OCc2ccc(-c3ccccc3-c3nnn[nH]3)cc2)cc(C)nc1C [Example 12, 3-ethoxy-2,6-dimethyl-4-[2'-(tetrazol-5-yl)biphenyl-4-yl]methoxypyridine]	1.74	–	significant inhibitory effects	ED50 [1]: 0.56 mg/kg; LD50 [3]: > 1000 mg/kg
CCOc1c(OCc2ccc(-c3ccccc3C(=O)O)cc2)cc(C)nc1C [Example 83, 3-ethoxy-2,6-dimethyl-4-(2'-carboxybiphenyl-4yl)methoxypyridine]	28.2	–	significant inhibitory effects	ED50 [1]: 1.21 mg/kg; LD50 [3]: > 1000 mg/kg
CCOC(=O)c1c(OCc2ccc(-c3ccccc3-c3nnn[nH]3)cc2)cc(CC)nc1C [Example 44, 3-ethoxycarbonyl-6-ethyl-2-methyl-4-[2'-(tetrazol-5-yl)-biphenyl-4-yl]methoxypyridine]	1	significant inhibitory effects	–	–
CC(=O)OCc1c(OCc2ccc(-c3ccccc3-c3nnn[nH]3)cc2)cc(C)nc1C [Example 67, 3-Acetoxymethyl-2,6-dimethyl-4-[2'-(tetrazol-5-yl)-biphenyl-4-yl]methoxypyridine]	0.129	–	–	–
CCc1cc(OCc2ccc(-c3ccccc3-c3nnn[nH]3)cc2)cc(CC)n1 [Example 1, 2,6-Diethyl-4-[2'-(tetrazol-5-yl)biphenyl-4-yl]-methoxypyridine]	5.25	–	significant inhibitory effects	ED50 [1]: 0.6 mg/kg; LD50 [3]: > 1000 mg/kg
COCc1c(OCc2ccc(-c3ccccc3-c3nnn[nH]3)cc2)cc(C)nc1C [Example 57, 3-Methoxymethyl-2,6-dimethyl-4-[2'-(tetrazol-5-yl)-biphenyl-4-yl]methoxypyridine]	6.17	significant inhibitory effects	–	–
Cc1cc(OCc2ccc(-c3ccccc3-c3nn[nH]n3)cc2)c(CO)c(C)n1 [Example 55, 3-Hydroxymethyl-2,6-dimethyl-4-[2'-(tetrazol-5-yl)biphenyl-4-yl]methoxypyridine]	12.3	–	–	–
Cc1cc(OCc2ccc(-c3ccccc3-c3nnn[nH]3)cc2)c(C=O)c(C)n1 [Example 68, 3-Formyl-2,6-dimethyl-4-[2'-(tetrazol-5-yl)biphenyl-4-yl]methoxypyridine]	5.89	–	–	–
Cc1cc(OCc2ccc(-c3ccccc3-c3nnn[nH]3)cc2)c(OCc2ccccc2)c(C)n1 [Example 21, 3-benzyloxy-2,6-dimethyl-4-[2'-(tetrazol-5-yl)biphenyl-4yl]-methoxypyridine]	6.76	significant inhibitory effects	–	–
CCc1nc(C)cc(OCc2ccc(-c3ccccc3-c3nnn[nH]3)cc2)c1C(=O)OC [Example 46, 2-ethyl-3-methoxycarbonyl-6-methyl-4-[2'-(tetrazol-5-yl)-biphenyl-4-yl]methoxypyridine]	0.617	–	significant inhibitory effects	–
CN1C(=O)CN=C(c2ccccc2)c2cc(Cl)ccc21 [diazepam]	–	–	–	duration out of the closed arm [4]: increased; latency until stepped out from the arm first placed [4]: significantly decreased; transitions [4]: increased
